The subject of assay [1] is Arabidopsis thaliana wild-type (Col). The experiment in a line: Germination efficiency under paclobutrazol treatment, wild-type. Format: in vivo. To be noted: FIG. 10. The text has this:
(§1) It is generally known that GA is involved in germination as well as hypocotyl growth as shown in Example 5. Hypocotyl growth or adult heights are associated with cell elongation. Typically, GA, auxin and brassinosteroid […] are involved in cell elongation while plant hormones such as GA and ABA are responsible for germination. As for the response to GA, its molecular mechanisms are different for different phenomena. Thus, in order to support the fact that the delayed flowering and/or dwarfism phenotype is attributed to the deficient response of sil1-1D to GA, the wild-type (Col) and sil1-1D were treated with paclobutrazol (PAC), which inhibits the biosynthesis of GA, and their germination efficiencies were compared. […] Generally, when GA biosynthesis was inhibited by PAC, germination efficiency was lowered, with a lowered response to GA.

In assay [2] the test system is sil1-1D mutant. Kind of assay: Germination efficiency under paclobutrazol treatment, sil1-1D mutant. Format: in vivo, Arabidopsis thaliana. To be noted: FIG. 10.
Description: as §1

Assay [3] deals with sil1-1D mutant. Kind of assay: Hypocotyl length response to GA, sil1-1D mutant. It counts as in vivo, Arabidopsis thaliana. To be noted: various concentrations of GA, white light, compared to wild-type, FIG. 9. As to the method:
(§2) In most cases, these phenomena occur when the plant becomes low in GA response or GA biosynthesis level. Thus, the response of sil1-1D to GA was examined. In this regard, hypocotyl lengths of 15 plantlets were measured after they were grown in ½ Gamborg B5 media (Duchefa) containing 1% sucrose and various concentrations of GA under white light.

Assay [4] relates to Arabidopsis thaliana wild-type (Col). Kind of assay: Hypocotyl length response to GA, wild-type. It counts as in vivo. To be noted: various concentrations of GA, white light, FIG. 9. As to the method: as §2

“Also recorded” adds a separate entry of the source.

On to `CC(C)(C)[C@@H](O)[C@@H](Cc1ccc(Cl)cc1)n1cncn1` (racemic) [PAC, paclobutrazol], for which the germination is around 100% in assay [1] (wild-type (Col), 0.35 mg/L PAC) and “about 50%” in the assay on sil1-1D mutant [2] (0.35 mg/L PAC). Besides, the germination efficiency entry in assay [1] (wild-type, increasing PAC concentration) is “decreased with increasing of PAC concentration”; in the assay on sil1-1D mutant [2] (increasing PAC concentration), “decreased with increasing of PAC concentration”.
For gibberellin [GA], the values for the hypocotyl growth result (in the assay on sil1-1D mutant [3]; in assay [4]) were “short hypocotyls in response to GA; also recorded: significantly reduced” and “increased with increasing of GA concentration”, respectively.

The values are drawn from patent US20110321198A1, “POLYPEPTIDE HAVING FUNCTION FOR DELAYING ANTHESIS OR SUPPRESSING GROWTH, POLYNUCLEOTIDE ENCODING THE SAME, AND USE THEREOF” (priority 2009, published 2011).
